Data taken from ChEMBL document CHEMBL1201862, “PubChem BioAssay data set” (2004).
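Cultured in 96-well plates, cells were exposed to test compound for 48 hours across five concentrations. At the GI50, growth is halved.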 Calls of active or inactive are those of the source. Rule as the data show it: active = GI50 up to about 1.1 µM and inactive = higher.

Experiments:
Assay in all cases: NCI-60 cell line screen, 48 h
[1] = system: A549
[2] = system: KM12
[3] = system: MDA-MB-231
[4] = system: MDA-MB-435
[5] = system: NCI-H460
[6] = system: NCI/ADR-RES
[7] = system: OVCAR-8
[8] = system: RPMI-8226
[9] = system: SF-268
[10] = system: SF-539
[11] = system: SK-MEL-28
[12] = system: SK-MEL-2
[13] = system: SN12C
[14] = system: SNB-19
[15] = system: SR
[16] = system: SW-620
[17] = system: T47D
[18] = system: U-251
[19] = system: UACC-62
[20] = system: UO-31

Measured: GI50

CN(Cc1cc(Cl)cc(Cl)c1O)Cc1c(O)ccc2ccccc12
inactive: [1] 26 µM | [2] 19.9 µM | [3] 16.9 µM | [4] 19.1 µM | [5] 18.4 µM | [6] 20.6 µM | [7] 19.5 µM | [8] 25 µM | [9] 13.6 µM | [10] 20.9 µM | [11] 19.1 µM | [12] 19.3 µM | [13] 21.2 µM | [14] 19.8 µM | [15] 23.8 µM | [16] 31.7 µM | [17] 19.2 µM | [18] 16.3 µM | [19] 15.5 µM | [20] 17.3 µM

COC(=O)CC1C(C)(C)C(=O)C2CC3=C4CC(=O)OC(c5ccoc5)C4(C)CCC3C1(C)C2=O (stereo unspecified)
inactive: [1] > 100 µM | [2] > 100 µM | [3] > 100 µM | [4] > 100 µM | [5] > 100 µM | [6] > 100 µM | [7] > 100 µM | [8] > 100 µM | [9] > 100 µM | [10] > 100 µM | [11] > 100 µM | [12] > 100 µM | [13] > 100 µM | [14] > 100 µM | [15] > 100 µM | [16] > 100 µM | [17] > 100 µM | [18] > 100 µM | [19] > 100 µM

COc1ccc2c3c1O[C@H](c1ccc(O)cc1)[C@H]3[N+](C)(C)CC2
inactive: [1] > 100 µM | [2] > 100 µM | [3] > 100 µM | [4] > 100 µM | [5] > 100 µM | [6] > 100 µM | [7] > 100 µM | [8] 47.4 µM | [9] > 100 µM | [10] > 100 µM | [11] > 100 µM | [12] > 100 µM | [13] > 100 µM | [14] 49.2 µM | [15] > 100 µM | [16] > 100 µM | [17] > 100 µM | [18] > 100 µM | [19] > 100 µM | [20] > 100 µM

CCCCCCCCCCCCCCCCCCNc1ccn(C2OC(CO)C(O)C2O)c(=O)n1 (stereo unspecified)
inactive: [1] 79.8 µM | [2] 84.1 µM | [3] > 100 µM | [4] > 100 µM | [5] > 100 µM | [6] > 100 µM | [7] > 100 µM | [8] 34 µM | [9] > 100 µM | [10] > 100 µM | [11] > 100 µM | [12] > 100 µM | [13] > 100 µM | [14] > 25.4 µM | [15] 23.7 µM | [16] > 100 µM | [17] > 40.7 µM | [18] 38.6 µM | [19] > 100 µM | [20] > 100 µM

COc1cc(/C=C2\N=C(c3ccccc3)N(/N=C/c3cc4cc(C)ccc4nc3Cl)C2=O)cc(OC)c1OC
inactive: [1] 36.4 µM | [2] 31.8 µM | [3] 23.1 µM | [4] 15.8 µM | [5] 29.4 µM | [6] 28 µM | [7] 35.1 µM | [8] 20.5 µM | [9] 35.6 µM | [10] 23.4 µM | [11] 91.6 µM | [12] 17.9 µM | [13] 61.8 µM | [14] 64.7 µM | [15] 19.4 µM | [16] 41.2 µM | [17] 18 µM | [18] 18.9 µM | [19] 32.1 µM | [20] 48.6 µM

Cc1cc(Nc2ccc(/N=N/c3ccc(O)c4ncccc34)cc2)nc(C)n1
inactive: [1] 9.82 µM | [2] 12.4 µM | [3] 24.9 µM | [4] 9.29 µM | [5] 6.93 µM | [6] 6.28 µM | [7] 6.61 µM | [8] 5.61 µM | [9] 14.6 µM | [10] 3.99 µM | [11] 11.2 µM | [12] 13.8 µM | [13] 10.4 µM | [14] 8.53 µM | [15] 6.34 µM | [16] 13.5 µM | [17] 6.01 µM | [18] 8.13 µM | [19] 6.38 µM | [20] 11 µM

CC1=CCCC2C1(C)CCC(C)C2(C)Cc1cc(O)ccc1O (stereo unspecified)
inactive: [1] 5.62 µM | [2] 5.94 µM | [3] 12.9 µM | [4] 7.24 µM | [5] 5.69 µM | [6] 5.21 µM | [7] 4.54 µM | [8] 2.86 µM | [9] 7.26 µM | [10] 8.34 µM | [11] 14.1 µM | [12] 9.06 µM | [13] 8.3 µM | [14] 5.68 µM | [15] 5.46 µM | [16] 6.12 µM | [17] 6.59 µM | [18] 4.26 µM | [19] 8.49 µM | [20] 4.84 µM

CC1CC[C@@]2(OC1)OC1C[C@H]3[C@@H]4CC=C5CC(OC6OC(CO)C(OC7OC(CO)C(O)C(OC8OCC(O)C(O)C8O)C7OC7OC(CO)C(O)C(O)C7O)C(O)C6O)CCC5(C)[C@H]4CCC3(C)C1[C@@H]2C (stereo partly specified)
inactive: [1] 4.38 µM | [2] 5.32 µM | [3] 4.66 µM | [4] 5.78 µM | [5] 5.52 µM | [6] 5.97 µM | [7] 4.61 µM | [8] 6.81 µM | [9] 4.84 µM | [10] 3.6 µM | [11] 12.3 µM | [12] 11.7 µM | [13] 4.58 µM | [14] 10.3 µM | [15] 7.23 µM | [16] 3.98 µM | [17] 5.71 µM | [18] 4.68 µM | [19] 21.7 µM

C/C=C/C=C/C1=NN(c2cccc(S(=O)(=O)O)c2)C2(C1)C(Cl)C(=O)N2c1nc2ccccc2s1 (stereo unspecified)
inactive: [1] 14.6 µM | [2] 13.6 µM | [3] 14.5 µM | [4] 13.4 µM | [5] 15.4 µM | [6] 27.2 µM | [7] 22 µM | [8] 17.3 µM | [9] 16.6 µM | [10] 12.6 µM | [11] 20.6 µM | [12] 15.6 µM | [13] 14.9 µM | [14] 15.2 µM | [15] 18.9 µM | [16] 20.2 µM | [17] 4.6 µM | [18] 9.55 µM | [19] 13 µM | [20] 2 µM

COc1cc2c(cc1OC)CC(N=[N+]=[N-])c1cc(OC)c(OC)cc1/C=C\2 (stereo unspecified)
inactive: [1] 38.8 µM | [2] 30.2 µM | [3] 30.8 µM | [4] 10.8 µM | [5] 43.4 µM | [6] 25.2 µM | [7] 18.4 µM | [8] 35.3 µM | [9] 51.8 µM | [10] 39.9 µM | [11] 89.1 µM | [12] 39.5 µM | [13] 68.5 µM | [14] 34 µM | [15] > 100 µM | [16] 83.6 µM | [17] 75 µM | [18] 51.2 µM | [19] 30 µM | [20] 38.5 µM

Cc1ccc2nc(Cl)c(/C=N/N3C(=O)/C(=C/c4ccc(N(C)C)cc4)N=C3c3ccccc3)cc2c1
inactive: [1] 37.8 µM | [2] 40.7 µM | [3] 38.9 µM | [4] 22.1 µM | [5] 37.5 µM | [6] 32.7 µM | [7] 41.8 µM | [8] 23.7 µM | [9] 37.2 µM | [10] 18.2 µM | [11] > 100 µM | [12] 21.9 µM | [13] 80.7 µM | [14] > 100 µM | [15] 32.6 µM | [16] 57.8 µM | [17] 43.4 µM | [18] 26 µM | [19] 43.4 µM | [20] 37 µM

COC(=O)C1C2OC(C)(C)OC2CN1S(=O)(=O)c1ccc(C)cc1 (stereo unspecified)
inactive: [1] > 100 µM | [2] > 100 µM | [3] > 100 µM | [4] > 100 µM | [5] > 100 µM | [6] > 100 µM | [7] > 100 µM | [8] > 100 µM | [9] > 100 µM | [10] > 100 µM | [11] > 100 µM | [12] > 100 µM | [13] > 100 µM | [14] > 100 µM | [15] > 100 µM | [16] > 100 µM | [17] > 100 µM | [18] > 100 µM | [19] > 100 µM | [20] > 100 µM

O=C(c1cccnc1)N1N=C(c2ccc3c(c2)OCO3)CC1(O)c1cc(F)c(Cl)cc1Cl (stereo unspecified)
inactive: [1] 28.6 µM | [2] 26.9 µM | [3] 17.3 µM | [4] 27 µM | [5] 17.4 µM | [6] 18.5 µM | [7] 18.8 µM | [8] 27.2 µM | [9] 19.9 µM | [10] 16.7 µM | [11] 25.5 µM | [12] 20.7 µM | [13] 18.5 µM | [14] 32.6 µM | [15] 14.7 µM | [16] 23.8 µM | [17] 3.59 µM | [18] 16.7 µM | [20] 17.3 µM

Nc1cc(N)c(/N=N/c2cccc3c(S(=O)(=O)O)cccc23)cc1/N=N/c1cc([N+](=O)[O-])ccc1O
inactive: [1] 25.5 µM | [2] 33.2 µM | [3] 14.6 µM | [4] 35.6 µM | [5] 29.1 µM | [6] 21.9 µM | [7] 23.4 µM | [8] 35.6 µM | [9] 6.62 µM | [10] 38 µM | [12] 22.4 µM | [13] 32.3 µM | [14] 48.9 µM | [15] 13.5 µM | [16] 28.8 µM | [17] 38.8 µM | [18] 13.7 µM | [19] 22.3 µM | [20] 19 µM
